Laboratory results taken from paper PMC5218480 (PLoS ONE, 2017).

Tested on: MV-4-11 cells
Test: Gene expression microarray analysis (Affymetrix PrimeView) and GSEA
Type: cell-based, human
Parameters: RFU PODN (11730768_x_at) / Fold change /veh PODN (11730768_x_at) / RFU LINC00158 (11744669_a_at) / Fold change /veh LINC00158 (11744669_a_at) / RFU DUSP10 (11751237_a_at) / Fold change /veh DUSP10 (11751237_a_at) / RFU ID3 (11757404_x_at) / Fold change /veh ID3 (11757404_x_at) / RFU PLEKHG5 (11737974_s_at) / Fold change /veh PLEKHG5 (11737974_s_at) / RFU LRRC4B (11730491_at) / Fold change /veh LRRC4B (11730491_at) / RFU GIMAP4 (11747438_a_at) / Fold change /veh GIMAP4 (11747438_a_at) / RFU KRT8 (11758183_x_at) / Fold change /veh KRT8 (11758183_x_at) / RFU CNN1 (11734310_a_at) / Fold change /veh CNN1 (11734310_a_at) / RFU VPS37D (11726825_at) / Fold change /veh VPS37D (11726825_at) / RFU C10orf10 (11716522_x_at) / Fold change /veh C10orf10 (11716522_x_at) / RFU KIR2DL2 /// KIR2DL4 /// KIR2DL5A /// KIR2DL5B /// KIR2DS1 /// KIR2DS2 /// KIR2DS3 /// KIR2DS4 /// KIR3DL3 /// KIR3DL3 /// KIR3DS1 (11738374_at) / Fold change /veh KIR2DL2 /// KIR2DL4 /// KIR2DL5A /// KIR2DL5B /// KIR2DS1 /// KIR2DS2 /// KIR2DS3 /// KIR2DS4 /// KIR3DL3 /// KIR3DL3 /// KIR3DS1 (11738374_at) / RFU C1QL1 (11718748_at) / Fold change /veh C1QL1 (11718748_at) / RFU TMPRSS4 (11747572_a_at) / Fold change /veh TMPRSS4 (11747572_a_at) / RFU HAMP (11756126_x_at) / Fold change /veh HAMP (11756126_x_at) / RFU RNFT2 (11725882_a_at) / Fold change /veh RNFT2 (11725882_a_at) / RFU NR4A2 (11747474_a_at) / Fold change /veh NR4A2 (11747474_a_at) / RFU ABCC12 (11746883_a_at) / Fold change /veh ABCC12 (11746883_a_at) / RFU TMEM136 (11760407_x_at) / Fold change /veh TMEM136 (11760407_x_at) / RFU CLDN22 /// WWC2 (11732394_at) / Fold change /veh CLDN22 /// WWC2 (11732394_at) / RFU HLA-DPB1 (11760878_x_at) / Fold change /veh HLA-DPB1 (11760878_x_at) / RFU SPINT1 (11716480_a_at) / Fold change /veh SPINT1 (11716480_a_at) / RFU GAP43 (11754022_s_at) / Fold change /veh GAP43 (11754022_s_at) / RFU A4GNT (11735810_at) / Fold change /veh A4GNT (11735810_at) / RFU PRB3 (11715151_x_at) / Fold change /veh PRB3 (11715151_x_at) / RFU TUBB4B (11761932_at) / Fold change /veh TUBB4B (11761932_at) / RFU CAPN14 (11732068_a_at) / Fold change /veh CAPN14 (11732068_a_at) / RFU TMCC2 (11721928_a_at) / Fold change /veh TMCC2 (11721928_a_at) / RFU IRGQ (11745062_a_at) / Fold change /veh IRGQ (11745062_a_at) / RFU FAM174B (11720279_a_at) / Fold change /veh FAM174B (11720279_a_at) / RFU TMPRSS4 (11748680_a_at) / Fold change /veh TMPRSS4 (11748680_a_at) / RFU FAM212B (11763350_a_at) / Fold change /veh FAM212B (11763350_a_at) / RFU PLEKHG5 (11743358_a_at) / Fold change /veh PLEKHG5 (11743358_a_at) / RFU ZSCAN30 (11745921_a_at) / Fold change /veh ZSCAN30 (11745921_a_at) / RFU CMKLR1 (11741424_a_at) / Fold change /veh CMKLR1 (11741424_a_at) / RFU LOC101060620 /// MAPK8IP1 (11723275_at) / Fold change /veh LOC101060620 /// MAPK8IP1 (11723275_at) / RFU SPTSSB (11747773_x_at) / Fold change /veh SPTSSB (11747773_x_at) / RFU PRSS12 (11739890_at) / Fold change /veh PRSS12 (11739890_at) / RFU BIN1 (11741810_x_at) / Fold change /veh BIN1 (11741810_x_at) / RFU WNT11 (11732464_a_at) / Fold change /veh WNT11 (11732464_a_at) / RFU C10orf10 (11716521_a_at) / Fold change /veh C10orf10 (11716521_a_at) / RFU C5orf56 (11738089_at) / Fold change /veh C5orf56 (11738089_at) / RFU CYB561 (11721691_x_at) / Fold change /veh CYB561 (11721691_x_at) / RFU ANKRD19P (11752326_a_at) / Fold change /veh ANKRD19P (11752326_a_at) / RFU OR2T12 /// OR2T33 /// OR2T8 (11738714_s_at) / Fold change /veh OR2T12 /// OR2T33 /// OR2T8 (11738714_s_at) / RFU VCAN (11748164_a_at) / Fold change /veh VCAN (11748164_a_at) / RFU JSRP1 (11732532_at) / Fold change /veh JSRP1 (11732532_at) / RFU KRTAP10-11 (11738290_x_at) / Fold change /veh KRTAP10-11 (11738290_x_at) / RFU MYO3A (11730013_a_at) / Fold change /veh MYO3A (11730013_a_at) / RFU EBF3 (11725865_a_at) / Fold change /veh EBF3 (11725865_a_at) / RFU CAMK2N1 (11719241_x_at) / Fold change /veh CAMK2N1 (11719241_x_at) / RFU C5orf56 (11738088_a_at) / Fold change /veh C5orf56 (11738088_a_at) / RFU OLFML3 (11715873_a_at) / Fold change /veh OLFML3 (11715873_a_at) / RFU LOC100653217 /// NTM (11731650_a_at) / Fold change /veh LOC100653217 /// NTM (11731650_a_at) / RFU MAPK11 (11762145_a_at) / Fold change /veh MAPK11 (11762145_a_at) / RFU FIZ1 (11724087_x_at) / Fold change /veh FIZ1 (11724087_x_at) / RFU OASL (11726364_x_at) / Fold change /veh OASL (11726364_x_at) / RFU SOX15 (11748057_x_at) / Fold change /veh SOX15 (11748057_x_at) / RFU CD79A (11719716_a_at) / Fold change /veh CD79A (11719716_a_at) / RFU HIST1H1D (11736915_at) / Fold change /veh HIST1H1D (11736915_at) / RFU CASKIN2 (11723855_a_at) / Fold change /veh CASKIN2 (11723855_a_at) / RFU LOC730098 (11760151_x_at) / Fold change /veh LOC730098 (11760151_x_at) / RFU OR4N2 (11742367_at) / Fold change /veh OR4N2 (11742367_at) / RFU PRRT2 (11749266_a_at) / Fold change /veh PRRT2 (11749266_a_at) / RFU SNX32 (11753110_a_at) / Fold change /veh SNX32 (11753110_a_at) / RFU CDHR5 (11726645_a_at) / Fold change /veh CDHR5 (11726645_a_at) / RFU RCAN1 (11760418_a_at) / Fold change /veh RCAN1 (11760418_a_at) / RFU FAM167A (11723789_a_at) / Fold change /veh FAM167A (11723789_a_at) / RFU FAM26E (11764081_at) / Fold change /veh FAM26E (11764081_at) / RFU ISYNA1 (11749810_s_at) / Fold change /veh ISYNA1 (11749810_s_at) / RFU ACY1 (11761880_at) / Fold change /veh ACY1 (11761880_at) / RFU 11764098_at / Fold change /veh 11764098_at / RFU SAMD14 (11745864_x_at) / Fold change /veh SAMD14 (11745864_x_at) / RFU NPB (11741838_a_at) / Fold change /veh NPB (11741838_a_at) / RFU TMPRSS6 (11731388_a_at) / Fold change /veh TMPRSS6 (11731388_a_at) / RFU KRTAP10-2 (11738614_at) / Fold change /veh KRTAP10-2 (11738614_at) / RFU ARHGAP8 /// PRR5-ARHGAP8 (11727945_x_at) / Fold change /veh ARHGAP8 /// PRR5-ARHGAP8 (11727945_x_at) / RFU KRTAP5-7 /// NADSYN1 (11734609_at) / Fold change /veh KRTAP5-7 /// NADSYN1 (11734609_at) / RFU RASL12 (11751679_a_at) / Fold change /veh RASL12 (11751679_a_at) / RFU CDKN2B (11736163_a_at) / Fold change /veh CDKN2B (11736163_a_at) / RFU PRF1 (11729649_at) / Fold change /veh PRF1 (11729649_at) / RFU, ZNF638 /// ZNF638-IT1 / Fold change vs veh, ZNF638 /// ZNF638-IT1 / RFU, PANK3 / Fold change vs veh, PANK3 / RFU, SH3YL1 / Fold change vs veh, SH3YL1 / RFU, ZEB2 / Fold change vs veh, ZEB2 / RFU, NRIP1 / Fold change vs veh, NRIP1 / RFU, PTTG1IP / Fold change vs veh, PTTG1IP / RFU, CAPN2 / Fold change vs veh, CAPN2 / RFU, MED14 / Fold change vs veh, MED14 / RFU, SNORA58 / Fold change vs veh, SNORA58 / RFU, C1orf63 / Fold change vs veh, C1orf63 / RFU, LRRFIP1 / Fold change vs veh, LRRFIP1 / RFU, NDUFAF7 / Fold change vs veh, NDUFAF7 / RFU, SLC12A2 / Fold change vs veh, SLC12A2 / RFU, IBTK / Fold change vs veh, IBTK / RFU, ESF1 / Fold change vs veh, ESF1 / Fold change vs veh, TMEM50B / RFU, TAOK1 / Fold change vs veh, TAOK1 / RFU, ACBD3 / Fold change vs veh, ACBD3 / RFU, TMA16 / Fold change vs veh, TMA16 / RFU, RWDD3 / Fold change vs veh, RWDD3 / RFU, BCAT1 / Fold change vs veh, BCAT1 / RFU, EDEM3 / Fold change vs veh, EDEM3 / RFU, TMEM33 / Fold change vs veh, TMEM33 / RFU, WDR75 / Fold change vs veh, WDR75 / RFU, AHCTF1 / Fold change vs veh, AHCTF1 / RFU, TFRC / Fold change vs veh, TFRC / RFU, ZDHHC17 / Fold change vs veh, ZDHHC17 / RFU, NOM1 / Fold change vs veh, NOM1 / RFU, ARL8B / Fold change vs veh, ARL8B / RFU, ZBTB11 / Fold change vs veh, ZBTB11 / RFU, TAMM41 / Fold change vs veh, TAMM41 / RFU, KIAA1704 /// LOC100996395 / Fold change vs veh, KIAA1704 /// LOC100996395 / RFU, ING1 / Fold change vs veh, ING1 / RFU, TRMT61B / Fold change vs veh, TRMT61B / RFU, FUBP3 / Fold change vs veh, FUBP3 / RFU, TP53 / Fold change vs veh, TP53 / RFU, TNKS2 / Fold change vs veh, TNKS2 / RFU, ZFP14 / Fold change vs veh, ZFP14 / RFU, ACTR2 / Fold change vs veh, ACTR2 / RFU, PPP3R1 / Fold change vs veh, PPP3R1 / RFU, PIK3R1 / Fold change vs veh, PIK3R1 / RFU, HNRNPA1 / Fold change vs veh, HNRNPA1 / RFU, RNF170 / Fold change vs veh, RNF170 / RFU, ZNF28 / Fold change vs veh, ZNF28 / RFU, RNGTT / Fold change vs veh, RNGTT / RFU, OGT / Fold change vs veh, OGT / RFU, BRD1 / Fold change vs veh, BRD1 / RFU, MARS / Fold change vs veh, MARS / RFU, ZNF655 / Fold change vs veh, ZNF655 / RFU, FAHD1 / Fold change vs veh, FAHD1 / RFU, BDP1 / Fold change vs veh, BDP1 / RFU, LRRCC1 / Fold change vs veh, LRRCC1 / RFU, ARID1A / Fold change vs veh, ARID1A / RFU, ZNF146 / Fold change vs veh, ZNF146 / RFU, ZNF330 / Fold change vs veh, ZNF330 / RFU, GPN3 / Fold change vs veh, GPN3 / RFU, C9orf123 / Fold change vs veh, C9orf123 / RFU, N4BP2L2 / Fold change vs veh, N4BP2L2 / RFU, ARFIP1 / Fold change vs veh, ARFIP1 / RFU, FAM179B / Fold change vs veh, FAM179B / RFU, BCL10 / Fold change vs veh, BCL10 / RFU, UHRF1BP1L / Fold change vs veh, UHRF1BP1L / RFU, BET1 / Fold change vs veh, BET1 / RFU, CNOT2 / Fold change vs veh, CNOT2 / RFU, ZNF268 / Fold change vs veh, ZNF268 / Fold change vs veh, ZNF507 / RFU, DGCR2 / Fold change vs veh, DGCR2 / RFU, WDSUB1 / Fold change vs veh, WDSUB1 / Fold change vs veh, HSP90B1 /// MIR3652 / RFU, ADSS / Fold change vs veh, ADSS / RFU, GK / Fold change vs veh, GK / RFU, ZNF148 / Fold change vs veh, ZNF148 / RFU, TAF9 / Fold change vs veh, TAF9 / RFU, SLC1A5 / Fold change vs veh, SLC1A5 / RFU, SLMO2 / Fold change vs veh, SLMO2 / RFU, ABCC4 / Fold change vs veh, ABCC4 / RFU, LOC101060439 /// RAP1B / Fold change vs veh, LOC101060439 /// RAP1B / RFU, RFX7 / Fold change vs veh, RFX7 / RFU, GTPBP10 / Fold change vs veh, GTPBP10 / RFU, CNEP1R1 / Fold change vs veh, CNEP1R1 / RFU, BIVM-ERCC5 /// ERCC5 / Fold change vs veh, BIVM-ERCC5 /// ERCC5 / RFU, ILF3 / Fold change vs veh, ILF3 / RFU 11762660_at / Fold change /veh 11762660_at / RFU VCAN (11757783_s_at) / Fold change /veh VCAN (11757783_s_at) / RFU DDX43 (11728927_at) / Fold change /veh DDX43 (11728927_at) / RFU KRT8 (11758188_x_at) / Fold change /veh KRT8 (11758188_x_at) / RFU NKD1 (11759106_at) / Fold change /veh NKD1 (11759106_at) / RFU SRD5A1 (11742802_a_at) / Fold change /veh SRD5A1 (11742802_a_at) / RFU TPSAB1 /// TPSB2 (11721975_s_at) / Fold change /veh TPSAB1 /// TPSB2 (11721975_s_at) / RFU GSTM3 (11746129_a_at) / Fold change /veh GSTM3 (11746129_a_at) / RFU IL23R (11737362_x_at) / Fold change /veh IL23R (11737362_x_at) / RFU TMEM51 (11727254_a_at) / Fold change /veh TMEM51 (11727254_a_at) / RFU PIWIL2 (11732686_x_at) / Fold change /veh PIWIL2 (11732686_x_at) / RFU ORM1 (11744905_x_at) / Fold change /veh ORM1 (11744905_x_at) / RFU CCDC152 (11743942_at) / Fold change /veh CCDC152 (11743942_at) / RFU ECM1 (11717891_a_at) / Fold change /veh ECM1 (11717891_a_at) / RFU IL23R (11748794_a_at) / Fold change /veh IL23R (11748794_a_at) / RFU TNFAIP8L3 (11732012_x_at) / Fold change /veh TNFAIP8L3 (11732012_x_at) / RFU MBOAT4 (11741988_at) / Fold change /veh MBOAT4 (11741988_at) / RFU 11764193_at / Fold change /veh 11764193_at / RFU TMEM53 (11763286_at) / Fold change /veh TMEM53 (11763286_at) / RFU MAGEB2 (11727129_at) / Fold change /veh MAGEB2 (11727129_at) / RFU TMEM200A (11744735_a_at) / Fold change /veh TMEM200A (11744735_a_at) / RFU CCDC152 (11751479_a_at) / Fold change /veh CCDC152 (11751479_a_at) / RFU FAM211A (11726209_a_at) / Fold change /veh FAM211A (11726209_a_at) / RFU RGS16 (11746705_a_at) / Fold change /veh RGS16 (11746705_a_at) / RFU VCAN (11755009_s_at) / Fold change /veh VCAN (11755009_s_at) / RFU RHOB (11743442_s_at) / Fold change /veh RHOB (11743442_s_at) / RFU RGS16 (11720943_a_at) / Fold change /veh RGS16 (11720943_a_at) / RFU RGS16 (11720944_at) / Fold change /veh RGS16 (11720944_at) / RFU, VPS4B / Fold change vs veh, VPS4B / RFU, CREB1 / Fold change vs veh, CREB1 / RFU, DNAJC13 / Fold change vs veh, DNAJC13 / RFU, GNAQ / Fold change vs veh, GNAQ / RFU, CDK5R1 / Fold change vs veh, CDK5R1 / RFU, ZRANB3 / Fold change vs veh, ZRANB3 / RFU, CUL4A / Fold change vs veh, CUL4A / RFU, CCNY / Fold change vs veh, CCNY / RFU, UFL1 / Fold change vs veh, UFL1 / RFU, COG3 / Fold change vs veh, COG3 / RFU, DIAPH2 / Fold change vs veh, DIAPH2 / RFU, SKA2 / Fold change vs veh, SKA2 / RFU, AFF3 / Fold change vs veh, AFF3 / RFU, LMF1 / Fold change vs veh, LMF1 / RFU, IPO11 / Fold change vs veh, IPO11 / RFU, DFFB / Fold change vs veh, DFFB / RFU, FOXP1 / Fold change vs veh, FOXP1 / RFU, CARD8 / Fold change vs veh, CARD8 / RFU, STRN3 / Fold change vs veh, STRN3 / RFU, ADK / Fold change vs veh, ADK / RFU, RASSF2 / Fold change vs veh, RASSF2 / RFU, WIPF1 / Fold change vs veh, WIPF1 / RFU, LARP1B / Fold change vs veh, LARP1B / RFU, RASA1 / Fold change vs veh, RASA1 / RFU, RB1 / Fold change vs veh, RB1 / RFU, PPFIA1 / Fold change vs veh, PPFIA1 / RFU, MAT2A / Fold change vs veh, MAT2A / RFU, CCT5 / Fold change vs veh, CCT5 / RFU, WDR92 / Fold change vs veh, WDR92 / RFU, CUX1 / Fold change vs veh, CUX1 / RFU, TTC7A / Fold change vs veh, TTC7A / RFU, TMEM135 / Fold change vs veh, TMEM135 / RFU, DEPTOR / Fold change vs veh, DEPTOR / RFU, CPM / Fold change vs veh, CPM / RFU, DNAJB6 / Fold change vs veh, DNAJB6 / RFU, CACNA2D3 / Fold change vs veh, CACNA2D3 / RFU, DTX4 / Fold change vs veh, DTX4 / RFU, TFCP2 / Fold change vs veh, TFCP2 / RFU, GMCL1 /// GMCL1P1 / Fold change vs veh, GMCL1 /// GMCL1P1 / RFU, AEBP2 / Fold change vs veh, AEBP2 / RFU, SNHG1 /// SNORD22 /// SNORD25 /// SNORD26 /// SNORD27 /// SNORD28 /// SNORD29 /// SNORD31 / Fold change vs veh, SNHG1 /// SNORD22 /// SNORD25 /// SNORD26 /// SNORD27 /// SNORD28 /// SNORD29 /// SNORD31 / Fold change (Aza/veh), C12orf56 (ProbeSet 11735607_a_at) / Fold change (ACY-1035/veh), C12orf56 (ProbeSet 11735607_a_at) / Fold change (Aza/veh), FGFR1OP (ProbeSet 11751329_s_at) / Fold change (ACY-1035/veh), FGFR1OP (ProbeSet 11751329_s_at) / Fold change (Aza/veh), VPS36 (ProbeSet 11739960_a_at) / Fold change (ACY-1035/veh), VPS36 (ProbeSet 11739960_a_at) / RFU SYPL1 (11715823_x_at) / Fold change /veh SYPL1 (11715823_x_at) / RFU IGFBP7 (11715501_s_at) / Fold change /veh IGFBP7 (11715501_s_at) / RFU REEP3 (11722064_at) / Fold change /veh REEP3 (11722064_at) / RFU IGLL1 (11728026_x_at) / Fold change /veh IGLL1 (11728026_x_at): dose or concentration left out as unconfirmed
Details: MV-4-11 cells, 48 hours

Nc1ccc(-c2cccs2)cc1NC(=O)c1ccc2c(c1)cc(C1CC1)n2CCN1CCOCC1 [ACY-1035]
Fold change /veh C1QL1 (11718748_at): 0.88
